Laboratory results from patent US9604982B2, “P2X7 modulators” (Janssen Pharmaceutica NV, priority 2013, dated 2017).

Target: P2X7 (Homo sapiens (Human), UniProt Q99572)
Test: P2X7 antagonism in human peripheral blood mononuclear cells (PBMCs), IL-1β release after LPS + Bz-ATP (ELISA)
Format: cell-based
Settings: 0.5 mM Bz-ATP; for remaining activity at 10 µM: P2X7, Table 2, 10 μM compound, read-out: PBMC 10 μM (% control); for PBMC 10 μM (% control): Table 3 (additional runs), 10 μM compound
Method: Human blood was collected using a blood donor program. […] Cells were incubated for an additional 1.5 hours. […] Data are analyzed and graphed on Graphpad Prism 5. […] The IC50 for each compound is then uploaded into 3DX.

Chain of P2X7 (Q99572 whole entry): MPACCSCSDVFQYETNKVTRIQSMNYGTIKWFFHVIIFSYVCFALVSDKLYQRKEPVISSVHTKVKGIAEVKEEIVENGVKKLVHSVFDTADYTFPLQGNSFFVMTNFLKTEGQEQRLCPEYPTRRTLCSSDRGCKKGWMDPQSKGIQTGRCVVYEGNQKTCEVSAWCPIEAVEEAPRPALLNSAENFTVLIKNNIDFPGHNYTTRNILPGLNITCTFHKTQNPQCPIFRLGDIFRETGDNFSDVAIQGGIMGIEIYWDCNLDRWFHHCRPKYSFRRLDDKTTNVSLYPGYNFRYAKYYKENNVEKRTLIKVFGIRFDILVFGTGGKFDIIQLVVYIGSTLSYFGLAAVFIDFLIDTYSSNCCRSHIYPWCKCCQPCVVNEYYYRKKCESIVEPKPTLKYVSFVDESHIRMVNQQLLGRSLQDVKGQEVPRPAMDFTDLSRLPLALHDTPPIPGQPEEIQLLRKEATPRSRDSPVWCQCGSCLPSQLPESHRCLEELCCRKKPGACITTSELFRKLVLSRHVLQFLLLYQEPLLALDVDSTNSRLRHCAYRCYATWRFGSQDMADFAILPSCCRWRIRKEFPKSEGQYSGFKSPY

remaining activity at 10 µM	PBMC 10 μM (% control)	Compound
5%	5.0 % control	Cc1nc2c(c(-c3ccn[nH]3)n1)C[C@@H](C)N(C(=O)c1cccc(C(F)(F)F)c1Cl)C2 (single isomer, unassigned) [Example 58, (6R*)-7-{[2-Chloro-3-(trifluoromethyl)phenyl]carbonyl}-2,6-dimethyl-4-(1H-pyrazol-5-yl)-5,6,7,8-tetrahydropyrido[3,4-d]pyrimidine]
2.8%	2.8 % control	Cc1nc2c(c(-c3ccn[nH]3)n1)C[C@H](C)N(C(=O)c1cccc(C(F)(F)F)c1Cl)C2 (single isomer, unassigned) [Example 59, (6S*)-7-{[2-Chloro-3-(trifluoromethyl)phenyl]carbonyl}-2,6-dimethyl-4-(1H-pyrazol-5-yl)-5,6,7,8-tetrahydropyrido[3,4-d]pyrimidine]
3.9%	3.9 % control	Cc1nc2c(c(-c3ccn[nH]3)n1)C[C@H](C)N(C(=O)c1ccc(F)c(C(F)(F)F)c1Cl)C2 (single isomer, unassigned) [Example 65, (S*)-(2-chloro-4-fluoro-3-(trifluoromethyl)phenyl)(2,6-dimethyl-4-(1H-pyrazol-5-yl)-5,6-dihydropyrido[3,4-d]pyrimidin-7(8H)-yl)methanone]
-6.1%	−6.1 % control	Cc1nc2c(c(-c3ccn[nH]3)n1)C[C@@H](C)N(C(=O)c1ccc(F)c(C(F)(F)F)c1Cl)C2 (single isomer, unassigned) [Example 66, (R*)-(2-chloro-4-fluoro-3-(trifluoromethyl)phenyl)(2,6-dimethyl-4-(1H-pyrazol-5-yl)-5,6-dihydropyrido[3,4-d]pyrimidin-7(8H)-yl)methanone]
-0.5%	−0.5 % control	Cc1nc2c(c(-c3ccn[nH]3)n1)C[C@@H](C)N(C(=O)c1cccc(Cl)c1Cl)C2 (single isomer, unassigned) [Example 68, (R*)-(2,3-dichlorophenyl)(2,6-dimethyl-4-(1H-pyrazol-5-yl)-5,6-dihydropyrido[3,4-d]pyrimidin-7(8H)-yl)methanone]
-6.2%	−6.2 % control	Cc1nc2c(c(-c3ccn[nH]3)n1)C[C@H](C)N(C(=O)c1cccc(Cl)c1Cl)C2 (single isomer, unassigned) [Example 69, (S*)-(2,3-dichlorophenyl)(2,6-dimethyl-4-(1H-pyrazol-5-yl)-5,6-dihydropyrido[3,4-d]pyrimidin-7(8H)-yl)methanone]
2.4%	2.4 % control	Cc1nc2c(c(-c3ccn[nH]3)n1)C[C@@H](C)N(C(=O)c1cccc(C(F)(F)F)c1F)C2 (single isomer, unassigned) [Example 75, (R*)-(2,6-dimethyl-4-(1H-pyrazol-5-yl)-5,6-dihydropyrido[3,4-d]pyrimidin-7(8H)-yl)(2-fluoro-3-(trifluoromethyl)phenyl)methanone]
14.3%		Cc1nc2c(c(-c3ccn[nH]3)n1)C[C@H](C)N(C(=O)c1cccc(C(F)(F)F)c1F)C2 (single isomer, unassigned) [Example 76, (S*)-(2,6-dimethyl-4-(1H-pyrazol-5-yl)-5,6-dihydropyrido[3,4-d]pyrimidin-7(8H)-yl)(2-fluoro-3-(trifluoromethyl)phenyl)methanone]
1.4%	1.4 % control	Cc1nc2c(c(-c3ccn[nH]3)n1)C[C@@H](C)N(C(=O)c1cccc(C(F)(F)F)c1C)C2 (single isomer, unassigned) [Example 78, (R*)-(2,6-dimethyl-4-(1H-pyrazol-5-yl)-5,6-dihydropyrido[3,4-d]pyrimidin-7(8H)-yl)(2-methyl-3-(trifluoromethyl)phenyl)methanone]
2.6%	2.6 % control	Cc1nc2c(c(-c3ccn[nH]3)n1)C[C@H](C)N(C(=O)c1cccc(C(F)(F)F)c1C)C2 (single isomer, unassigned) [Example 79, (S*)-(2,6-dimethyl-4-(1H-pyrazol-5-yl)-5,6-dihydropyrido[3,4-d]pyrimidin-7(8H)-yl)(2-methyl-3-(trifluoromethyl)phenyl)methanone]
21%	21.0 % control	Cc1nc2c(c(-c3ccn[nH]3)n1)C[C@@H](C)N(C(=O)c1ccc(F)c(Cl)c1Cl)C2 (single isomer, unassigned) [Example 81, (R*)-(2,3-dichloro-4-fluorophenyl)(2,6-dimethyl-4-(1H-pyrazol-5-yl)-5,6-dihydropyrido[3,4-d]pyrimidin-7(8H)-yl)methanone]
-1%	−1.0 % control	Cc1nc2c(c(-c3ccn[nH]3)n1)C[C@H](C)N(C(=O)c1ccc(F)c(Cl)c1Cl)C2 (single isomer, unassigned) [Example 82, (S*)-(2,3-dichloro-4-fluorophenyl)(2,6-dimethyl-4-(1H-pyrazol-5-yl)-5,6-dihydropyrido[3,4-d]pyrimidin-7(8H)-yl)methanone]
7.5%	7.5 % control	Cc1nc2c(c(-c3ccn[nH]3)n1)C[C@@H](C)N(C(=O)c1ccc(Cl)cc1Cl)C2 (single isomer, unassigned) [Example 84, (R*)-(2,4-dichlorophenyl)(2,6-dimethyl-4-(1H-pyrazol-5-yl)-5,6-dihydropyrido[3,4-d]pyrimidin-7(8H)-yl)methanone]
-0.8%	−0.8 % control	Cc1nc2c(c(-c3ccn[nH]3)n1)C[C@H](C)N(C(=O)c1ccc(Cl)cc1Cl)C2 (single isomer, unassigned) [Example 85, (S*)-(2,4-dichlorophenyl)(2,6-dimethyl-4-(1H-pyrazol-5-yl)-5,6-dihydropyrido[3,4-d]pyrimidin-7(8H)-yl)methanone]
49.4%		Cc1nc2c(c(-c3ccn[nH]3)n1)C[C@@H](C)N(C(=O)c1ccc(Cl)cc1F)C2 (single isomer, unassigned) [Example 88, (R*)-(4-chloro-2-fluorophenyl)(2,6-dimethyl-4-(1H-pyrazol-5-yl)-5,6-dihydropyrido[3,4-d]pyrimidin-7(8H)-yl)methanone]
-8.8%	−8.8 % control	Cc1nc2c(c(-c3ccn[nH]3)n1)C[C@@H](C)N(C(=O)c1ccc(F)cc1Cl)C2 (single isomer, unassigned) [Example 91, (R*)-(2-chloro-4-fluorophenyl)(2,6-dimethyl-4-(1H-pyrazol-5-yl)-5,6-dihydropyrido[3,4-d]pyrimidin-7(8H)-yl)methanone]
9.4%	9.4 % control	Cc1nc2c(c(-c3ccn[nH]3)n1)C[C@H](C)N(C(=O)c1ccc(F)cc1Cl)C2 (single isomer, unassigned) [Example 92, (S*)-(2-chloro-4-fluorophenyl)(2,6-dimethyl-4-(1H-pyrazol-5-yl)-5,6-dihydropyrido[3,4-d]pyrimidin-7(8H)-yl)methanone]
71.8%		Cc1nc2c(c(-c3ccn[nH]3)n1)C[C@@H](C)N(C(=O)c1ccc(F)cc1F)C2 (single isomer, unassigned) [Example 94, (R*)-(2,4-difluorophenyl)(2,6-dimethyl-4-(1H-pyrazol-5-yl)-5,6-dihydropyrido[3,4-d]pyrimidin-7(8H)-yl)methanone]
